How the values were obtained:
Assay in all cases: Test B pre-/postemergence plant response
Format in all cases: in vivo
[1] = test system: Italian ryegrass (Lolium multiflorum); conditions: for Ryegrass, Italian plant response rating: postemergence, 0-100 scale; for Plant response rating, Ryegrass, Italian: Postemergence
How it was run: (§1)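 Seeds were sown and sprayed preemergence, while plants at 2 to 18 cm (1- to 4-leaf stage) got postemergence sprays. Compounds were formulated in a non-phytotoxic solvent mixture with surfactant. After 13 to 15 days in a greenhouse, injury was rated visually against untreated controls, 0 (no effect) to 100 (complete control).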

[2] = test system: cocklebur (Xanthium strumarium); conditions: for Plant response rating, Cocklebur: Postemergence
How it was run: as §1

[3] = test system: common ragweed (Ambrosia elation); conditions: for Ragweed plant response rating: postemergence, 0-100 scale; for Plant response rating, Ragweed: Postemergence
How it was run: as §1

corn (Zea mays) = conditions: for Plant response rating, Corn: Postemergence
How it was run: as §1

[4] = test system: green foxtail (Setaria viridis); conditions: for Plant response rating, Foxtail, Green: Postemergence
How it was run: as §1

kochia (Kochia scoparia) = conditions: for Kochia plant response rating: postemergence, 0-100 scale; for Plant response rating, Kochia: Postemergence
How it was run: as §1

[5] = test system: lambsquarters (Chenopodium album); conditions: for Lambsquarters plant response rating: postemergence, 0-100 scale; for Plant response rating, Lambsquarters: Postemergence
How it was run: as §1

[6] = test system: morningglory (Ipomoea coccinea); conditions: for Morningglory plant response rating: postemergence, 0-100 scale; for Plant response rating, Morningglory: Postemergence
How it was run: as §1

[7] = test system: surinam grass (Brachiaria decumbens); conditions: for Surinam Grass plant response rating: postemergence, 0-100 scale; for Plant response rating, Surinam Grass: Postemergence
How it was run: as §1

wild oat (Avena fatua) = conditions: for Oat, Wild plant response rating: postemergence, 0-100 scale; for Plant response rating, Oat, Wild: Postemergence
How it was run: as §1

[8] = test system: yellow nutsedge (Cyperus esculentus); conditions: for Nutsedge, Yellow plant response rating: postemergence, 0-100 scale; for Plant response rating, Nutsedge, Yellow: Postemergence
How it was run: as §1

[9] = 62 g ai/ha, scale 0 to 100, 0 no effect, 100 complete control
[10] = 8 g ai/ha, postemergence, 0-100 scale

Q: Which “Ryegrass, Italian plant response rating” value ([1]; 8 g ai/ha) does the source give for COCc1cc(-c2ccc(Br)cc2)nn1-c1c(O)cnn(C)c1=O [Compound 68] here?
A: Its value is 0.

Q: What about the “Ryegrass, Italian plant response rating” value ([1]; 16 g ai/ha) of the same compound?
A: The value was 10.

Q: What about the “Plant response rating, Ryegrass, Italian” value ([1]; 31 g ai/ha, scale 0 to 100) of the same compound?
A: Its value is 80.

Q: And the “Plant response rating, Ryegrass, Italian” value [1, 9]?
A: Its value is 95.

Q: And the “Cocklebur plant response rating” value [2, 10]?
A: The value was 0.

Q: And the “Plant response rating, Cocklebur” value ([2]; 16 g ai/ha, scale 0 to 100)?
A: Its value is 0.

Q: What about the “Plant response rating, Cocklebur” value ([2]; 31 g ai/ha, scale 0 to 100) of the same compound?
A: Its value is 0.

Q: And the “Plant response rating, Cocklebur” value [2, 9]?
A: The value was 0.

Q: What about the “Ragweed plant response rating” value ([3]; 8 g ai/ha) of the same compound?
A: The value was 0.

Q: What about the “Ragweed plant response rating” value ([3]; 16 g ai/ha) of the same compound?
A: The value was 0.

Q: What about the “Plant response rating, Ragweed” value ([3]; 31 g ai/ha, scale 0 to 100) of the same compound?
A: The value was 0.

Q: What about the “Plant response rating, Ragweed” value [3, 9] of the same compound?
A: The value was 0.

Q: What about the “Corn plant response rating” value (corn (Zea mays); [10]) of the same compound?
A: The value was 0.

Q: And the “Plant response rating, Corn” value (corn (Zea mays); 16 g ai/ha, scale 0 to 100)?
A: Its value is 0.

Q: And the “Plant response rating, Corn” value (corn (Zea mays); 31 g ai/ha, scale 0 to 100)?
A: Its value is 30.

Q: And the “Plant response rating, Corn” value (corn (Zea mays); [9])?
A: The value was 95.

Q: And the “Foxtail, Green plant response rating” value [4, 10]?
A: Its value is 10.

Q: What about the “Plant response rating, Foxtail, Green” value ([4]; 16 g ai/ha, scale 0 to 100) of the same compound?
A: Its value is 50.

Q: What about the “Plant response rating, Foxtail, Green” value ([4]; 31 g ai/ha, scale 0 to 100) of the same compound?
A: The value was 60.

Q: What about the “Plant response rating, Foxtail, Green” value [4, 9] of the same compound?
A: Its value is 95.

Q: What about the “Kochia plant response rating” value (kochia (Kochia scoparia); 8 g ai/ha) of the same compound?
A: The value was 0.

Q: What about the “Kochia plant response rating” value (kochia (Kochia scoparia); 16 g ai/ha) of the same compound?
A: Its value is 0.

Q: What about the “Plant response rating, Kochia” value (kochia (Kochia scoparia); 31 g ai/ha, scale 0 to 100) of the same compound?
A: Its value is 0.

Q: And the “Plant response rating, Kochia” value (kochia (Kochia scoparia); [9])?
A: Its value is 0.

Q: What about the “Lambsquarters plant response rating” value ([5]; 8 g ai/ha) of the same compound?
A: The value was 0.

Q: What about the “Lambsquarters plant response rating” value ([5]; 16 g ai/ha) of the same compound?
A: Its value is 0.

Q: And the “Plant response rating, Lambsquarters” value ([5]; 31 g ai/ha, scale 0 to 100)?
A: Its value is 0.

Q: What about the “Plant response rating, Lambsquarters” value [5, 9] of the same compound?
A: The value was 0.

Q: And the “Morningglory plant response rating” value ([6]; 8 g ai/ha)?
A: The value was 0.

Q: And the “Morningglory plant response rating” value ([6]; 16 g ai/ha)?
A: Its value is 0.

Q: What about the “Plant response rating, Morningglory” value ([6]; 31 g ai/ha, scale 0 to 100) of the same compound?
A: The value was 0.

Q: And the “Plant response rating, Morningglory” value [6, 9]?
A: Its value is 0.

Q: And the “Surinam Grass plant response rating” value ([7]; 8 g ai/ha)?
A: The value was 35.

Q: What about the “Surinam Grass plant response rating” value ([7]; 16 g ai/ha) of the same compound?
A: The value was 35.

Q: And the “Plant response rating, Surinam Grass” value ([7]; 31 g ai/ha, scale 0 to 100)?
A: Its value is 80.

Q: And the “Plant response rating, Surinam Grass” value [7, 9]?
A: Its value is 80.

Q: And the “Oat, Wild plant response rating” value (wild oat (Avena fatua); 8 g ai/ha)?
A: Its value is 0.

Q: And the “Oat, Wild plant response rating” value (wild oat (Avena fatua); 16 g ai/ha)?
A: Its value is 0.

Q: And the “Plant response rating, Oat, Wild” value (wild oat (Avena fatua); 31 g ai/ha, scale 0 to 100)?
A: Its value is 5.

Q: What about the “Plant response rating, Oat, Wild” value (wild oat (Avena fatua); [9]) of the same compound?
A: The value was 40.

Q: What about the “Nutsedge, Yellow plant response rating” value ([8]; 8 g ai/ha) of the same compound?
A: Its value is 0.

Q: And the “Nutsedge, Yellow plant response rating” value ([8]; 16 g ai/ha)?
A: The value was 0.

Q: And the “Plant response rating, Nutsedge, Yellow” value ([8]; 31 g ai/ha, scale 0 to 100)?
A: The value was 0.

Q: And the “Plant response rating, Nutsedge, Yellow” value [8, 9]?
A: The value was 0.

Source: patent US20100267561A1, “HERBICIDAL PYRIDAZINONE DERIVATIVES” (priority 2007, published 2010)
